In patent US20050209289A1, “Method for vascular dysregulation” (priority 2004, published 2005):

Test system: clinical patients
Test: Clinical patient encounters treated with vascular dysregulation techniques (trigger elimination plus calcium channel blocker and/or antiemetic); case reports
Format: in vivo, human
Details: person
Procedure: At Step 36, a personal and family medical history of a patient is collected during a patient encounter. […] At Step 42, a list of environmental triggers for the one or more determined dysregulation pathways to be avoided is prepared for the patient. At Step 44, a list of medical triggers for the one or more determined dysregulation pathway to be avoided is prepared for the patient. At Step 46, the patient's current medication profile, if any, is adjusted for the one or more determined dysregulation pathways, thereby treating the medical condition via the one or more determined dysregulation pathways.
At Step 50, a test is conducted to determine whether a patient has a chronic medical condition and has one or more common symptoms based on a personal and medical history collected during a patient encounter. […] The vascular dysregulation techniques include eliminating environmental triggers, eliminating medical triggers and adjusting patient's current medication profile.

Structure (SMILES): COc1ccc([C@@H]2Sc3ccccc3N(CCN(C)C)C(=O)[C@@H]2OC(C)=O)cc1 [diltiazem]
- Cold toes and fingers, Patient E (cold toes and fingers, migraine headaches, off caffeine): obtained warm fingers and toes
- Severe headaches and insomnia, Patient H (coffee and diet sodas eliminated, daily dose): severe headaches were eliminated and they are sleeping soundly
- Singing voice (unexpected effect), Patient E (off caffeine, presumed secondary to decreased post-nasal drip and nasal congestion): significantly stronger singing voice
